“And” between values parts separate entries of the source, which are not always exact repeats. Equal entries are not always repeated.
Tested on: CaNT allograft
Assay: Ex vivo biodistribution in CaNT allograft bearing CBA/Carl mice
Conditions: for Ex vivo biodistribution Blood / Ex vivo biodistribution Bone / Ex vivo biodistribution Brain / Ex vivo biodistribution Caecum / Ex vivo biodistribution Fat / Ex vivo biodistribution Gallbladder / Ex vivo biodistribution Heart / Ex vivo biodistribution Kidney / Ex vivo biodistribution Large intestine / Ex vivo biodistribution Liver / Ex vivo biodistribution Lung / Ex vivo biodistribution Muscle / Ex vivo biodistribution Pancreas / Ex vivo biodistribution Skin / Ex vivo biodistribution Spleen / Ex vivo biodistribution Stomach / Ex vivo biodistribution Tumour: CaNT allograft mice, 1 h p.i.; for tumour uptake (group mean): CaNT tumours
Method: All animal procedures were performed in accordance with the UK Animals (Scientific Procedures) Act 1986 and with local ethical committee approval. Animals were housed in IVC cages in sex-matched groups up to 5 per cage, in an artificial day-night cycle facility, with ad libitum access to food and water. Tumour xenografts or allografts were generated by subcutaneous injection of PANC-1 or Capan-1 cell suspensions in the hind flank of balb/c nu/nu animals. CaNT xenografts were generated by harvesting CaNT tumours from donor animals, and injecting a tumour homogenate subcutaneously in the flank of wild type CBA/Carl mice. Tumours were irradiated (10 Gy, 2 Gy/min) using a 300 kV X-ray device.
Dynamic PET/CT images were acquired following an intravenous bolus administration of [^18F]-olaparib. Biodistribution studies, where selected tissues were harvested, were performed 1 h post injection. Some animals were also administered an excess of cold, unlabelled olaparib for evaluating the specificity of tumour uptake. EF5, a hypoxia-selective marker, was injected 2 h before culling of the animal. Digital autoradiography was performed on tumour sections. Image analysis was performed using PMOD.
The murine adenocarcinoma NT (CaNT) was implanted subcutaneously onto the right thigh of 6-7 week-old female CBA/Carl mice. Fifty μL of a crude cell suspension, prepared by mechanical dissociation of an excised tumor from a donor animal, was injected. Tumors were selected for imaging when the geometric mean diameter reached 6-8 mm (volumes calculated as above), approximately 3 weeks after implantation (Kersemans, V., et al. Hypoxia imaging using PET and SPECT: the effects of anesthetic and carrier gas on [Cu]-ATSM, [Tc]-HL91 and [F]-FMISO tumor hypoxia accumulation. PloS one 6, e25911, 2011).
Two hours prior to PET/CT imaging, animals were exposed to X-irradiation of the tumour (10 Gy or sham) (see schedule in FIG. 13). Radiation was delivered using a Gulmay 320 kV X-irradiator; 2.0 Gy/min. Anaesthesia was maintained at 2.5% isoflurane throughout the duration of the irradiation, and animals were allowed to recover. To study the relationship of PARP1 expression, ^18F-olaparib uptake and hypoxia, animals were administered 0.6 μg in 200 μL (0.9% saline) intraperitoneally, one hour prior to PET/CT imaging. Naïve CBA/Carl mice, not bearing tumours, were not irradiated, nor was EF5 administered.
Dynamic PET/CT images were acquired using a VECTor ^4CT integrated PET/CT system. Mice were anaesthetised by 4% isoflurane gas (0.5 L/min O2) and placed on a custom-built imaging cradle in a prone position. Animals mice were intravenously injected with [^18F]-olaparib or (3-5 MBq, 8-11 GBq/μmol, through a tail vein catheter, and dynamic imaging was performed over 45-60 min after radiolabelled compound administration. PET acquisition (150 s per frame, using list mode acquisition) using an ultra-high resolution rat/mouse 1.8 mm collimator, followed by a cone-beam CT scan (55 kV, 0.19 mA) for anatomical reference and attenuation correction. Anaesthesia was maintained at 2.5% isoflurane throughout the duration of the image acquisition. PET images were reconstructed using U-SPECT-Rec3.22 software (MILabs, Utrecht, The Netherlands), applying a pixel-based algorithm with 8 subsets, 6 iterations and 0.8 mm voxel size for ^18F (energy window settings 477.9-584.1 keV).
After PET/CT image acquisition, animals were euthanized by cervical dislocation and selected organs, tissues and blood were removed. The amount of radioactivity in each organ was measured using a 2480 WIZARD^2 gamma counter (PerkinElmer). Counts per minute were converted into MBq using a calibration curve generated from known standards. Values were decay-corrected to the time of injection, and the percentage of the injected dose per gram (% ID/g) of each tissue was calculated.

[1] = + IR (10 Gy), individual animals
[2] = + block (excess cold olaparib), individual animal
[3] = tracer alone, individual animals

**Q.** O=C(c1cc(Cc2n[nH]c(=O)c3ccccc23)ccc1[18F])N1CCN(C(=O)C2CC2)CC1 [[^18F]olaparib] was tested. Which “Ex vivo biodistribution Blood” value [1] did it give?
**A.** 9.79 % ID/g and 3.12 % ID/g

**Q.** What about the “Ex vivo biodistribution Bone” value [1] of the same molecule?
**A.** 15.7 % ID/g and 11.5 % ID/g

**Q.** What about the “Ex vivo biodistribution Brain” value [1] of the same molecule?
**A.** 0.20 % ID/g and 0.25 % ID/g

**Q.** What about the “Ex vivo biodistribution Caecum” value [1] of the same molecule?
**A.** 42.9 % ID/g and 44.6 % ID/g

**Q.** What about the “Ex vivo biodistribution Fat” value [1] of the same molecule?
**A.** 2.52 % ID/g and 2.34 % ID/g

**Q.** And the “Ex vivo biodistribution Gallbladder” value [1]?
**A.** 155 % ID/g and 57.3 % ID/g

**Q.** What about the “Ex vivo biodistribution Heart” value [1] of the same molecule?
**A.** 8.74 % ID/g and 7.03 % ID/g

**Q.** And the “Ex vivo biodistribution Kidney” value [1]?
**A.** 24.5 % ID/g and 19.0 % ID/g

**Q.** What about the “Ex vivo biodistribution Large intestine” value [1] of the same molecule?
**A.** 60.1 % ID/g and 47.0 % ID/g

**Q.** What about the “Ex vivo biodistribution Liver” value [1] of the same molecule?
**A.** 93.2 % ID/g and 100 % ID/g

**Q.** What about the “Ex vivo biodistribution Lung” value [1] of the same molecule?
**A.** 10.9 % ID/g and 9.61 % ID/g

**Q.** And the “Ex vivo biodistribution Muscle” value [1]?
**A.** 5.45 % ID/g and 5.31 % ID/g

**Q.** And the “Ex vivo biodistribution Pancreas” value [1]?
**A.** 29.5 % ID/g and 23.6 % ID/g

**Q.** What about the “Ex vivo biodistribution Skin” value [1] of the same molecule?
**A.** 5.02 % ID/g and 5.12 % ID/g

**Q.** What about the “Ex vivo biodistribution Spleen” value [1] of the same molecule?
**A.** 69.0 % ID/g and 58.3 % ID/g

**Q.** And the “Ex vivo biodistribution Stomach” value [1]?
**A.** 9.40 % ID/g and 4.20 % ID/g

**Q.** And the “Ex vivo biodistribution Tumour” value [1]?
**A.** 1.43 % ID/g and 1.92 % ID/g

**Q.** What about the “Ex vivo biodistribution Blood” value [2] of the same molecule?
**A.** 4.00 % ID/g

**Q.** What about the “Ex vivo biodistribution Bone” value [2] of the same molecule?
**A.** 5.18 % ID/g

**Q.** And the “Ex vivo biodistribution Brain” value [2]?
**A.** 0.22 % ID/g

**Q.** What about the “Ex vivo biodistribution Caecum” value [2] of the same molecule?
**A.** 101 % ID/g

**Q.** And the “Ex vivo biodistribution Fat” value [2]?
**A.** 1.57 % ID/g

**Q.** And the “Ex vivo biodistribution Gallbladder” value [2]?
**A.** 194 % ID/g

**Q.** And the “Ex vivo biodistribution Heart” value [2]?
**A.** 2.51 % ID/g

**Q.** And the “Ex vivo biodistribution Kidney” value [2]?
**A.** 8.45 % ID/g

**Q.** What about the “Ex vivo biodistribution Large intestine” value [2] of the same molecule?
**A.** 61.2 % ID/g

**Q.** What about the “Ex vivo biodistribution Liver” value [2] of the same molecule?
**A.** 74.3 % ID/g

**Q.** And the “Ex vivo biodistribution Lung” value [2]?
**A.** 2.29 % ID/g

**Q.** And the “Ex vivo biodistribution Muscle” value [2]?
**A.** 2.65 % ID/g

**Q.** And the “Ex vivo biodistribution Pancreas” value [2]?
**A.** 3.41 % ID/g

**Q.** And the “Ex vivo biodistribution Skin” value [2]?
**A.** 1.16 % ID/g

**Q.** And the “Ex vivo biodistribution Spleen” value [2]?
**A.** 2.41 % ID/g

**Q.** What about the “Ex vivo biodistribution Stomach” value [2] of the same molecule?
**A.** 4.09 % ID/g

**Q.** And the “Ex vivo biodistribution Tumour” value [2]?
**A.** 0.98 % ID/g

**Q.** What about the “Ex vivo biodistribution Blood” value [3] of the same molecule?
**A.** 1.78 % ID/g and 8.00 % ID/g

**Q.** And the “Ex vivo biodistribution Bone” value [3]?
**A.** 11.7 % ID/g and 10.2 % ID/g

**Q.** And the “Ex vivo biodistribution Brain” value [3]?
**A.** 0.29 % ID/g and 0.23 % ID/g

**Q.** And the “Ex vivo biodistribution Caecum” value [3]?
**A.** 32.5 % ID/g and 56.2 % ID/g

**Q.** And the “Ex vivo biodistribution Fat” value [3]?
**A.** 7.19 % ID/g and 1.12 % ID/g

**Q.** What about the “Ex vivo biodistribution Gallbladder” value [3] of the same molecule?
**A.** 953 % ID/g and 126 % ID/g

**Q.** What about the “Ex vivo biodistribution Heart” value [3] of the same molecule?
**A.** 7.34 % ID/g and 0.00 % ID/g

**Q.** And the “Ex vivo biodistribution Kidney” value [3]?
**A.** 23.9 % ID/g and 21.0 % ID/g

**Q.** And the “Ex vivo biodistribution Large intestine” value [3]?
**A.** 24.0 % ID/g and 47.8 % ID/g

**Q.** And the “Ex vivo biodistribution Liver” value [3]?
**A.** 84.6 % ID/g and 110 % ID/g

**Q.** And the “Ex vivo biodistribution Lung” value [3]?
**A.** 12.5 % ID/g and 9.73 % ID/g

**Q.** And the “Ex vivo biodistribution Muscle” value [3]?
**A.** 5.84 % ID/g and 4.63 % ID/g

**Q.** And the “Ex vivo biodistribution Pancreas” value [3]?
**A.** 15.1 % ID/g and 20.8 % ID/g

**Q.** And the “Ex vivo biodistribution Skin” value [3]?
**A.** 3.82 % ID/g and 4.65 % ID/g

**Q.** And the “Ex vivo biodistribution Spleen” value [3]?
**A.** 43.3 % ID/g and 47.0 % ID/g

**Q.** And the “Ex vivo biodistribution Stomach” value [3]?
**A.** 6.17 % ID/g and 12.8 % ID/g

**Q.** And the “Ex vivo biodistribution Tumour” value [3]?
**A.** 1.48 % ID/g and 2.83 % ID/g

**Q.** What about the “tumour uptake (group mean)” value (excess cold olaparib) of the same molecule?
**A.** 0.80±0.19 % ID/g

**Q.** And the “tumour uptake (group mean)” value (tracer alone)?
**A.** 1.71±0.59 % ID/g

Source: patent publication US20250340519A1, “RADIOLABELLED COMPOUND” (OXFORD UNIVERSITY INNOVATION LIMITED, priority 2018, published 2025)
